Source: patent US4269831A, “Topical dermatological method of use of an androstenopyrazole” (priority 1979, dated 1981)

Tests used:
[1] = system: androgen-stimulated flank organ; assay: Related experiment: androgen-stimulated flank organ in mature female and castrated immature male hamsters; format: in vivo; conditions: 5 to 25 micrograms per flank organ
Source text: As shown by Table I the diameters and the wet weights of the flank organs were reduced at a dose of 5 micrograms per flank organ per day.

[2] = system: hair on the back of mature male Syrian golden hamsters; assay: Reduction of hair regrowth on clipped back of hamsters; format: in vivo; conditions: 200 microliters on 9 cm2, 30 daily applications, vehicle 323±49 mg
Source text: The hair on the back of mature male Syrian golden hamsters having a mean initial body weight of 107 g. (7 hamsters per group) was removed with electric clippers. The vehicle (200 microliters of ethanol) or the test solution (0.02% or 0.1% of the compound of Formula I in ethanol) was pipetted slowly to cover the entire clipped area (9 cm.^2). After 30 daily applications, the hair was clipped from the same area and the hair clippings were collected and weighed in order to measure hair regrowth. The hair weights averaged 119±15 and 109±17 mg. for hamsters treated with 0.02% and 0.1% of the compound of Formula I, respectively, compared to 323±49 mg. for vehicle-treated hamsters.

[3] = system: male hamster flank organ hair; assay: Rate of flank organ hair growth by 35S-cystine pulse labelling (Table V); format: in vivo, Syrian golden hamsters; conditions: right flank organ, 5 microliters 0.1% solution daily for 14 days; mean ± SE, n=8
Procedure: In a second test all hair was clipped from the flank organs of 8 male Syrian golden hamsters having a mean body weight of 116 g. on the first day of the study. The hamsters were medicated daily with 5 microliters of ethanol on the left flank organ and 5 microliters of a 0.1% solution of the compound of Formula I in ethanol on the right flank organ for 14 consecutive days. On days 4, 8 and 12 each hamster was injected subcutaneously with 30 microcuries of ^35 S-cystine (0.72 nmole) dissolved in ethanol-saline (0.1 ml., 1:9, v/v). On day 15 several hairs were plucked from each flank organ. The hairs were exposed to X-ray film for 4 weeks. The distances between the radioactive sites and the hair resulting from the three pulses of ^35 S-cystine were measured and the daily rate of hair-growth was determined. As shown by Table V the rate of hair growth was reduced after 12 days of treatment.

[4] = system: flank organ of mature male Syrian golden hamsters; assay: Topical antiandrogenic activity in mature male hamsters, both flank organs medicated (Table I); format: in vivo; conditions: mean, n=8
Source text: (§1) Each flank organ of mature male Syrian golden hamsters having a mean initial body weight of 105 g. was medicated topically with the compound of Formula I dissolved in ethanol (5 microliters) for twenty-one days. Flank organ hair was clipped three times per week to facilitate application. On the day following the last medication the hamsters were killed with an overdose of sodium pentobarbital. The flank organ parameters and the weights of seminal vesicles, adrenals and thymus glands were determined. Flank organ diameter was measured parallel to the breadth of the hamster with vernier calipers. Wet weights were obtained on flank organs excised around the periphery of the pigmented area. The topical activity of the compound of Formula I was also compared with that of 17β-hydroxy-17α-propylandrost-4-en-3-one, an antiandrogen, and hydrocortisone. In this experiment the right flank organ was treated with the test compound while vehicle-treated left flank organ served as control. […] In addition, the individual characteristics of the flank organ, elevation (thickness relative to adjacent skin), area, hair pigment, skin pigment and hair growth were all scored separately on a scale of 0 to 4.

[5] = system: flank organ of mature male Syrian golden hamsters; assay: Topical comparison in mature male hamsters, right flank organ treated, left flank organ vehicle (Tables II, III); format: in vivo; conditions: for Flank organ Diameter, RFO / Flank organ Weight, RFO / Flank organ Development, RFO (median score): treated right flank organ; for Flank organ Diameter, RFO / Flank organ Weight, RFO: mean; for Flank organ Diameter, RFO / Flank organ Weight, RFO / Flank organ Development, RFO (median score) / Flank Organ (Mean Score) Area / Flank Organ (Mean Score) Elevation / Flank Organ (Mean Score) Hair Growth / Flank Organ (Mean Score) Hair Pigmentation / Flank Organ (Mean Score) Skin Pigmentation: n=7; for Flank organ Development, RFO (median score): scale 0 to 4 (0 barely visible, 4 as in mature male); for Flank Organ (Mean Score) Area / Flank Organ (Mean Score) Elevation / Flank Organ (Mean Score) Hair Growth / Flank Organ (Mean Score) Hair Pigmentation / Flank Organ (Mean Score) Skin Pigmentation: RFO, scale 0 to 4
Source text: as §1

[6] = 1 μg/flank organ/day topical for 21 days
[7] = 5 μg/flank organ/day topical for 21 days
[8] = 25 μg/flank organ/day topical for 21 days
[9] = 125 μg/flank organ/day topical for 21 days

## CC#C[C@]1(O)CC[C@H]2[C@@H]3C[C@H](C)C4=Cc5[nH]ncc5C[C@]4(C)[C@H]3CC[C@@]21C [Compound of Formula I, 17β-Hydroxy-6α-methyl-17α-propynyl-4-androsteno[3,2-c]-pyrazole]
[1]
  Inhibition of androgen-stimulated flank organ parameters: effective inhibitor of androgen-stimulated flank organ parameters
  Systemic effects: without any systemic effects
[2]; 0.02% in ethanol
  Hair weights (hair regrowth on clipped back area): 119 ± 15 mg
[2]; 0.1% in ethanol
  Hair weights (hair regrowth on clipped back area): 109 ± 17 mg
[3]
  Rate of Hair Growth, First Interval (Day 4-8): .504 ± .014 mm/day
  Rate of Hair Growth, Second Interval (Day 9-12): .566 ± .014 mm/day
[4]; [6]
  Flank Organ Diameter: 5.7 mm
  Flank Organ Wet Weight: 46.5 mg
  Organ Weights: Adrenal: 26.7 mg
  Organ Weights: Seminal Vesicles: 288.3 mg
  Organ Weights: Thymus: 57.1 mg
[4]; [7]
  Flank Organ Diameter: 4.8 mm
  Flank Organ Wet Weight: 36.4 mg
  Organ Weights: Adrenal: 25.5 mg
  Organ Weights: Seminal Vesicles: 277.6 mg
  Organ Weights: Thymus: 53.2 mg
[4]; [8]
  Flank Organ Diameter: 4.7 mm
  Flank Organ Wet Weight: 33.4 mg
  Organ Weights: Adrenal: 25.5 mg
  Organ Weights: Seminal Vesicles: 270.3 mg
  Organ Weights: Thymus: 53.7 mg
[4]; [9]
  Flank Organ Diameter: 4.8 mm
  Flank Organ Wet Weight: 30.7 mg
  Organ Weights: Adrenal: 21.0 mg
  Organ Weights: Seminal Vesicles: 267.3 mg
  Organ Weights: Thymus: 52.8 mg
[5]; 5 μg/RFO for 21 days
  Flank organ Diameter, RFO: 5.2 mm
  Flank organ Weight, RFO: 35.9 mg
  Flank organ Development, RFO (median score): 3
[5]; 50 μg/RFO for 21 days
  Flank organ Diameter, RFO: 5.0 mm
  Flank organ Weight, RFO: 33.2 mg
  Flank organ Development, RFO (median score): 3
[5]; 5 and 50 μg/RFO topical for 21 days
  Dose response of flank organ inhibition: flat dose response curve
[5]; 5 μg/flank organ for 21 days
  Flank Organ (Mean Score) Area: 3.3
  Flank Organ (Mean Score) Elevation: 3.1
  Flank Organ (Mean Score) Hair Growth: 1.4
  Flank Organ (Mean Score) Hair Pigmentation: 3.6
  Flank Organ (Mean Score) Skin Pigmentation: 3.3
[5]; 50 μg/flank organ for 21 days
  Flank Organ (Mean Score) Area: 3.0
  Flank Organ (Mean Score) Elevation: 2.6
  Flank Organ (Mean Score) Hair Growth: 0
  Flank Organ (Mean Score) Hair Pigmentation: 3.0
  Flank Organ (Mean Score) Skin Pigmentation: 3.1
